The source of these data is patent US20050070570A1, “Novel potassium channels modulators” (4SC AG, priority 2003, published 2005).

The test has as its target BK channels (CHO cells permanently transfected with cloned hSlo, α-hSlo and β-bSlo) (Homo sapiens, UniProt Q12791). The test is described as follows: Em-Assay: fluorescence membrane potential assay with voltage sensitive dye DiBAC(4)3. In kind it is cell-based. The settings on record: ratio of the compound effect (50 μM) compared to the maximal effect of NS004 (25 or 50 μM). The source says:
The large conductance, voltage-dependent and Ca^2+-activated potassium channel BK is a potassium selective ion channel and belongs to the subfamily of KCa channels. Four BK alpha-subunits form a functional channel that can be regulated by intracellular Ca^2+ concentration, membrane voltage, and other mechanisms like phosphorylation states or beta subunits. To test the biological activity of the compounds, we applied two different techniques, a fluorescence based assay using a voltage sensitive dye (Em-Assay) as well as exploiting electrophysiological methods.
CHO cells permanently transfected with cloned hSlo (α-hSlo and β-bSlo), yielding typical BK potassium currents (Zhou et al., Pflügers Arch., 436: 725-734 (1998), were used for the evaluation of compound activity. Activation or inhibition of BK channels in these cells leads to a change of the electrochemical gradient causing a hyperpolarized or depolarised membrane potential, respectively.
To determine changes in the membrane potential of the cells we used the voltage sensitive dye DiBaC(4)3 (Molecular Probes) in a kinetic assay system using a fluorescent plate reader (Manning and Sontheimer, J. Neurosci. Meth., 91: 73-81 (1999). The anionic bis-oxonol DiBAC(4)3 is a voltage sensitive dye which partitions from the extracellular environment into the cell where it reversibly binds to intracellular proteins, a kinetic process depending on the membrane potential of the cell. At depolarised potentials (i.e. at a reduced K^+ efflux due to blocked K^+ channels) the dye accumulates in the cell leading to an increased fluorescence intensity, due to its increased fluorescence if bound to cellular proteins. At hyperpolarized potentials (i.e. at an increased K^+ efflux due to the opening of K^+ channels), the dye partitions out of the cell causing a decreased fluorescence intensity.
hslo transfected CHO cells where maintained in DMEM supplemented with 10% FCS, 250 μg/ml Geneticin, 100 μg/m Hygromycin, 1×HT-Supplement, and 1×Non-essential Amino Acids and cultured in a humidified CO2 incubator. After trypsination, cells where plated with a density of 5×10^4 cells per well on a clear 96-well plate and incubated for 24 h. Cells where washed once with PBS, once with PBS containing 20 mM HEPES (adjusted to pH 7.4 with NaOH) and 2 μM DiBAC(4)3 (DPBS-DiBAC solution). 180 μl of the dPBS-DiBAC solution was then added to the cells and the plate incubated for 30-60 min at 37° C. During this time the dye could partition into the cells and reach a certain steady-state distribution, depending on the resting membrane potential. Test and reference compounds were stored as DMSO stock solutions and diluted in dPBS-DiBAC solution to the desired concentration.
Fluorescence intensity (Ex.: 485 nm/Em.: 520 nm) of each well was detected in the plate reader (Fluostar, BMG) every 60 seconds. After recording the baseline fluorescence for 7 minutes, 20 μl test- and reference compounds were added and the fluorescence intensity was detected for additional 15 minutes. Background was subtracted, data values were normalized and expressed as a change in fluorescence intensity against time. The change in fluorescence intensity caused by the test compounds was evaluated, compared to the effect of the reference compound NS004, and the ratio was determined (see Table I).

BK channels (CHO cells permanently transfected with cloned hSlo, α-hSlo and β-bSlo), sequence (Q12791 whole entry): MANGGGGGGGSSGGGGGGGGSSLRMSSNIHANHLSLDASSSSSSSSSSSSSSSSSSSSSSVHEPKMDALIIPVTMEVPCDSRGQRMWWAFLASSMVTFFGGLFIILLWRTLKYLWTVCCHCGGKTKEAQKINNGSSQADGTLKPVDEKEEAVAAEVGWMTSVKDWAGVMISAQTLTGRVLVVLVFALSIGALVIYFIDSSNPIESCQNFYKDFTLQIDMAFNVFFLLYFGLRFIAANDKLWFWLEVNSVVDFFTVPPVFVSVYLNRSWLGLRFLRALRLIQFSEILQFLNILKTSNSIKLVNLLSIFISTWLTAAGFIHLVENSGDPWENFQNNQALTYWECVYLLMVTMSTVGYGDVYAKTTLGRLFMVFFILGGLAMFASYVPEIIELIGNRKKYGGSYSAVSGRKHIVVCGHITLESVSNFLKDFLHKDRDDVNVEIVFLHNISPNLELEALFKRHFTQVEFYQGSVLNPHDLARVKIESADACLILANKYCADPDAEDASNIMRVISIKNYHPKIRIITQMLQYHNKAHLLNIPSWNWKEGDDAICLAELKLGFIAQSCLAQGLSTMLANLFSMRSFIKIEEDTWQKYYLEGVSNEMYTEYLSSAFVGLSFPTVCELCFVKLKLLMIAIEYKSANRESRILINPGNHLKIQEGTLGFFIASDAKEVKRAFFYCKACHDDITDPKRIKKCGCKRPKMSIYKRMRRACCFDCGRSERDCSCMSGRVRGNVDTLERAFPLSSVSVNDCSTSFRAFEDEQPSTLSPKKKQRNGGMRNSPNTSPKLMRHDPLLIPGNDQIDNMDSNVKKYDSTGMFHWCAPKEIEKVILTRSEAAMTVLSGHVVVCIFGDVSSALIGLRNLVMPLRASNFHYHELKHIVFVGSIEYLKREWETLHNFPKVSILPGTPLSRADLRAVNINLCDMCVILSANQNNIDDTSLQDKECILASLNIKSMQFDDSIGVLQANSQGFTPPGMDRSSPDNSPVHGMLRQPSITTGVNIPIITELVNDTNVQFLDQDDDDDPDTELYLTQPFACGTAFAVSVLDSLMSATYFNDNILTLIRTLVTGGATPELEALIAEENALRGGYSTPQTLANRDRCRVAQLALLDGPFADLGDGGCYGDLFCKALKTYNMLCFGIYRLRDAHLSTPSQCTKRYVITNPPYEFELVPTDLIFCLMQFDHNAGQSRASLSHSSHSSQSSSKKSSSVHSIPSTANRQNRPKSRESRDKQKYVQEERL
BK channels (CHO cells permanently transfected with cloned hSlo, α-hSlo and β-bSlo), sequence (Q28067 whole entry partner): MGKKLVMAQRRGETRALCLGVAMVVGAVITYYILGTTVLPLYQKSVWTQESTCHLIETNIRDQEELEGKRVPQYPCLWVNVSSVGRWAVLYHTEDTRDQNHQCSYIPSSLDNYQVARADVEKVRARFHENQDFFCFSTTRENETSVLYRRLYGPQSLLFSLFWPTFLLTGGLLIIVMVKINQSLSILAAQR

In the case of `COc1cc2c(c(OC)c1)C(c1ccc(O)cc1)N(C(=O)CCC1CCCC1)CC2` (centres unmarked) [Compound 21, 3-Cyclopentyl-1-[1-(4-hydroxy-phenyl)-6,8-dimethoxy-3,4-dihydro-1H-isoquinolin-2-yl]-propan-1-one], the Em effect result is on record as “+++ (>1.5=+++)”.
The value for `COc1ccc(C(=O)N2CCc3cc(OC)cc(OC)c3C2c2ccc(O)cc2)cc1` (centres unmarked) [Compound 22, [1-(4-Hydroxy-phenyl)-6,8-dimethoxy-3,4-dihydro-1H-isoquinolin-2-yl]-(4-methoxy-phenyl)-methanone] was “+ (0-1=+)”.
As to `COc1cc2c(c(OC)c1)C(c1ccc(-c3ccccc3)cc1)N(C(=O)c1ccc([N+](=O)[O-])cc1)CC2` (centres unmarked) [Compound 2, (1-Biphenyl-4-yl-6,8-dimethoxy-3,4-dihydro-1H-isoquinolin-2-yl)-(4-nitro-phenyl)-methanone], the Em effect entry is on record as “+ (0-1=+)”.
Regarding `COc1cc2c(c(OC)c1)C(c1cccc(OC(F)(F)F)c1)N(S(=O)(=O)c1cc(C(F)(F)F)ccc1[N+](=O)[O-])CC2` (centres unmarked) [Compound 34, 6,8-Dimethoxy-2-(2-nitro-5-trifluoromethyl-benzenesulfonyl)-1-(3-trifluoromethoxy-phenyl)-1,2,3,4-tetrahydro-isoquinoline], the Em effect result was “+ (0-1=+)”.
For `COc1ccc(C(=O)N2CCc3cc(OC)cc(OC)c3C2c2cccc(OC(F)(F)F)c2)cc1` (centres unmarked) [Compound 31, [6,8-Dimethoxy-1-(3-trifluoromethoxy-phenyl)-3,4-dihydro-1H-isoquinolin-2-yl]-(4-methoxy-phenyl)-methanone], the Em effect entry is “+ (0-1=+)”.
The value for `COc1cc2c(c(OC)c1)C(c1ccc(-c3ccccc3)cc1)N(C(=O)c1ccc(OC(F)(F)F)cc1)CC2` (centres unmarked) [Compound 7, (1-Biphenyl-4-yl-6,8-dimethoxy-3,4-dihydro-1H-isoquinolin-2-yl)-(4-trifluoromethoxy-phenyl)-methanone] was “+ (0-1=+)”; that for `COc1cc2c(c(OC)c1)C(C)N(C(=O)c1cccc([N+](=O)[O-])c1)CC2` (centres unmarked) [Compound 38, (6,8-Dimethoxy-1-methyl-3,4-dihydro-1H-isoquinolin-2-yl)-(3-nitro-phenyl)-methanone] was “+ (0-1=+)”.
On to `COc1cc2c(c(OC)c1)C(c1ccc(O)cc1)N(C(=O)c1ccc(-c3ccccc3)cc1)CC2` (centres unmarked) [Compound 15, Biphenyl-4-yl-[1-(4-hydroxy-phenyl)-6,8-dimethoxy-3,4-dihydro-1H-isoquinolin-2-yl]-methanone], for which the Em effect result is recorded as “+ (0-1=+)”.
On to `COc1cc2c(c(OC)c1)C(C)N(C(=O)c1ccc(OC(F)(F)F)cc1)CC2` (centres unmarked) [Compound 39, (6,8-Dimethoxy-1-methyl-3,4-dihydro-1H-isoquinolin-2-yl)-(4-trifluoro-methoxy-phenyl)-methanone], for which the Em effect entry is “+ (0-1=+)”.
For `COc1cc2c(c(OC)c1)C(c1ccc(O)cc1)N(C(=O)c1ccc3c(c1)OCO3)CC2` (centres unmarked) [Compound 26, Benzo[1,3]dioxol-5-yl-[1-(4-hydroxy-phenyl)-6,8-dimethoxy-3,4-dihydro-1H-isoquinolin-2-yl]-methanone], the Em effect entry is reported as “+ (0-1=+)”.
Consider `COc1cc2c(c(OC)c1)C(c1ccc(-c3ccccc3)cc1)N(C(=O)c1cc(C(F)(F)F)cc(C(F)(F)F)c1)CC2` (centres unmarked) [Compound 8, (1-Biphenyl-4-yl-6,8-dimethoxy-3,4-dihydro-1H-isoquinolin-2-yl)-(3,5-bis-trifluoromethyl-phenyl)methanone], for which the Em effect result was “+ (0-1=+)”.
With `COc1cc2c(c(OC)c1)C(c1ccc(O)cc1)N(C(=O)CCc1ccccc1)CC2` (centres unmarked) [Compound 12] the entry was “+ (0-1=+)”; with `COc1cc2c(c(OC)c1)C(c1ccc(O)cc1)N(C(=O)c1cccc(OC(F)(F)F)c1)CC2` (centres unmarked) [Compound 11, [1-(4-Hydroxy-phenyl)-6,8-dimethoxy-3,4-dihydro-1H-isoquinolin-2-yl]-(3-trifluoromethoxy-phenyl)-metanone], “+ (0-1=+)”.
With `COc1cc2c(c(OC)c1)C(c1cccc(OC(F)(F)F)c1)N(C(=O)c1ccc(NC(C)=O)cc1)CC2` (centres unmarked) [Compound 32, N-{4-[6,8-Dimethoxy-1-(3-trifluoro-methoxy-phenyl)-3,4-dihydro-1H-isoquinoline-2-carbonyl]-phenyl}-acetamide], the Em effect entry is reported as “+ (0-1=+)”.
The value for `COc1cc2c(c(OC)c1)C(c1ccc(-c3ccccc3)cc1)N(C(=O)c1ccc(C(F)(F)F)cc1)CC2` (centres unmarked) [Compound 4, (1-Biphenyl-4-yl-6,8-dimethoxy-3,4-dihydro-1H-isoquinolin-2-yl)-(4-trifluoromethylphenyl)-methanone] was “+ (0-1=+)”.
`COc1ccc(C(=O)N2CCc3cc(OC)cc(OC)c3C2C)cc1` (centres unmarked) [Compound 40, (6,8-Dimethoxy-1-methyl-3,4-dihydro-1H-isoquinolin-2-yl)-(4-methoxy-phenyl)-methanone]: the Em effect result was “+ (0-1=+)”.
Turning to `COc1cc2c(c(OC)c1)C(c1ccc(O)cc1)N(C(=O)CCC1CCCCC1)CC2` (centres unmarked) [Compound 23, 3-Cyclohexyl-1-[1-(4-hydroxy-phenyl)-6,8-dimethoxy-3,4-dihydro-1H-isoquinolin-2-yl]-propan-1-one], the Em effect result is “+ (0-1=+)”.
With `COc1cc2c(c(OC)c1)C(c1ccc(O)cc1)N(C(=O)c1ccc(C(F)(F)F)cc1)CC2` (centres unmarked) [Compound 20, [1-(4-Hydroxy-phenyl)-6,8-dimethoxy-3,4-dihydro-1H-isoquinolin-2-yl]-(4-trifluoromethyl-phenyl)methanone] the entry was “+ (0-1=+)”; with `COc1cc2c(c(OC)c1)C(c1ccc(O)cc1)N(C(=O)c1sc3ccccc3c1Cl)CC2` (centres unmarked) [Compound 24, (3-Chloro-benzo[b]thiophen-2-yl)-[1-(4-hydroxy-phenyl)-6,8-dimethoxy-3,4-dihydro-1H-iso-quinolin-2-yl]-methanone], “+ (0-1=+)”; with `COc1cc2c(c(OC)c1)C(c1cccc(OC(F)(F)F)c1)N(S(=O)(=O)c1cc(C(F)(F)F)cc(C(F)(F)F)c1)CC2` (centres unmarked) [Compound 35, 2-(3,5-Bis-trifluoromethyl-benzenesulfonyl)-6,8-dimethoxy-1-(3-trifluoromethoxy-phenyl)-1,2,3,4-tetrahydroisoquinoline], “+ (0-1=+)”.
As for `COc1cc2c(c(OC)c1)C(c1cccc(OC(F)(F)F)c1)N(C(C)=O)CC2` (centres unmarked) [Compound 29, 1-[6,8-Dimethoxy-1-(3-trifluoromethoxy-phenyl)-3,4-dihydro-1H-isoquinolin-2-yl]-ethanone], the Em effect result is reported as “++ (>1-1.5=++)”.
In the case of `COc1cc2c(c(OC)c1)C(c1ccc(-c3ccccc3)cc1)N(C(=O)c1ccc(C(F)(F)F)cc1F)CC2` (centres unmarked) [Compound 5, (1-Biphenyl-4-yl-6,8-dimethoxy-3,4-dihydro-1H-isoquinolin-2-yl)-(2-fluoro-4-trifluoromethyl-phenyl)-methanone], the Em effect entry is given as “+ (0-1=+)”.
Take `COc1cc2c(c(OC)c1)C(c1ccc(O)cc1)N(C(=O)c1ccc(C(C)(C)C)cc1)CC2` (centres unmarked) [Compound 14, (4-tert-Butyl-phenyl)-[1-(4-hydroxy-phenyl)-6,8-dimethoxy-3,4-dihydro-1-H-isoquinolin-2-yl]-methanone]: the Em effect entry is “+ (0-1=+)”.
Consider `COc1cc2c(c(OC)c1)C(c1ccc(-c3ccccc3)cc1)N(C(=O)c1ccc(C(C)(C)C)cc1)CC2` (centres unmarked) [Compound 6, (1-Biphenyl-4-yl-6,8-dimethoxy-3,4-dihydro-1H-isoquinolin-2-yl)-(4-tert-butyl-phenyl)-methanone], for which the Em effect result is “+ (0-1=+)”.
Consider `COc1cc2c(c(OC)c1)C(C)N(S(=O)(=O)c1cc(C(F)(F)F)cc(C(F)(F)F)c1)CC2` (centres unmarked) [Compound 37, 2-(3,5-Bis-trifluoromethyl-benzenesulfonyl)-6,8-dimethoxy-1-methyl-1,2,3,4-tetra-hydroisoquinoline], for which the Em effect result was “+ (0-1=+)”.
As for “(3,5-Bis-trifluoromethoxy-phenyl)-[6,8-dimethoxy-1-(3-trifluoromethoxy-phenyl)-3,4-dihydro-1H-iso-quinolin-2-yl]-methanone [Compound 33]”, the Em effect entry is “+ (0-1=+)”.
